Literature values, collected in patent publication US11407830B2, “Methods of treating cancer with anti-PD-1 antibodies” (TESARO, INC., priority 2017, dated 2022).
pIC50: −log10 of the molar value.

Tests used:
[1] = test system: PARP activity in various cell lines
[2] = test system: non-small-cell lung cancer, melanoma, and renal-cell cancer; conditions: Phase I clinical trial

Compound: NC(=O)c1cccc2cn(-c3ccc([C@@H]4CCCNC4)cc3)nc12 [Niraparib, (3 S)-3-[4-{7-(aminocarbonyl)-2H-indazol-2-yl}phenyl]piperidine]
- pIC50 ([1]; read-out: IC50, PARP activity in cells, hydrogen peroxide DNA damage): ~8.40
- IC90 ([1]; read-out: inhibitory concentration at 90% of control (IC90), PARP activity in cells, hydrogen peroxide DNA damage): ~0.05 µM

Compound: nivolumab: monoclonal antibody targeting PD-1
- tumor response [2]: complete or partial responses
